This assay concerns HBV. The assay is described as follows: Inhibition of HBV replication dot-blot assay in HBV-producing hepatoma cell line. The class given is cell-based. The following applies: Hepatitis B virus, 144 h; activity in Dot-Blot assay; HepG2-2.2.15 cells; reduction in HBV DNA levels, six days. The protocol: Compounds active in the HBV assembly assay are tested for their activity and toxicity in cellular assay. In the first anti-viral assay, the ability of compounds to inhibit HBV replication in an HBV-producing hepatoma cell line using the dot-blot method is evaluated.
(§1) Briefly, confluent monolayers of HepG2-2.2.15 cells are incubated with complete medium containing various concentrations of a test compound. Three days later, the culture medium is replaced with fresh medium containing the appropriately diluted test compound. Six days following the initial administration of the test compound, the cell culture supernatant is collected, and cell lysis is performed. The samples are applied onto Nylos membranes and DNA is immobilized to the membrane by UV cross-linking. After pre-hybridization, the HBV probe is added and the hybridization is performed overnight. The membranes are exposed to the KODAK films; antiviral activity is calculated from the reduction in HBV DNA levels (EC50). The EC50 for antiviral activity is calculated from the dose response curves of active compounds. Assay performance over time is monitored by the use of the standard positive control compounds ETV, BAY 41-4109, and HAP-1.
Selected compounds are tested for their activity and toxicity in cellular assay. In the first anti-viral assay, the ability of compounds to inhibit HBV replication in an HBV-producing hepatoma cell line using the dot-blot method is evaluated.
as §1, with “Confluent monolayers” for “Briefly, confluent monolayers”, “lysis was” for “lysis is”
With `O=C(Nc1ccc(F)c(Cl)c1)c1ccc(F)c(SC2CCCOC2)c1` (racemic) [Compound 64, (±)-N-(3-Chloro-4-fluorophenyl)-4-fluoro-3-((tetrahydro-2H-pyran-3-yl)thio)benzamide], the concentration giving a half-maximal response (EC50) is under 10 µM.

Turning to `O=C(Nc1ccc(F)c(Cl)c1)c1ccc(F)c(SC2CCCCC2F)c1` (racemic) [Compound 72, (±)-N-(3-Chloro-4-fluorophenyl)-4-fluoro-3-((2-fluorocyclohexyl)thio)benzamide], the half-maximal effective concentration (EC50) was under 10 µM.

For the molecule `O=C(O)CC1CCC(Sc2cc(C(=O)Nc3cc(F)c(F)c(F)c3)ccc2F)C1` (racemic) [Compound 101, (±)-2-(3-((2-Fluoro-5-((3,4,5-trifluorophenyl)carbamoyl)phenyl)thio)cyclopentyl)acetic acid], the EC50 was under 10 µM.

Regarding `O=C(O)CC1CCC(Sc2cc(C(=O)Nc3ccc(F)c(Cl)c3)ccc2F)C1` (racemic) [Compound 102, (±)-2-(3-((5-((3-Chloro-4-fluorophenyl)carbamoyl)-2-fluorophenyl)thio)cyclopentyl)acetic acid], the concentration for a half-maximal effect (EC50) is under 10 µM.

The molecule `O=C(O)CC1CCC(Sc2cc(C(=O)Nc3ccc(F)c(F)c3)ccc2F)C1` (racemic) [Compound 105, (±)-2-(3-((5-((3,4-Difluorophenyl)carbamoyl)-2-fluorophenyl)thio)cyclopentyl)acetic acid] gave an EC50 of under 10 µM.

As for `O=C(Nc1ccc(F)c(Cl)c1)c1ccnc(NS(=O)(=O)C2CCOC2)c1` (racemic) [Compound 161, (±)-N-(3-Chloro-4-fluorophenyl)-2-(tetrahydrofuran-3-sulfonamido)isonicotinamide], the EC50 is under 10 µM.

In turn, `O=C(Nc1ccc(F)c(Cl)c1)c1ccnc(NS(=O)(=O)C2CCCOC2)c1` (racemic) [Compound 179, (±)-N-(3-Chloro-4-fluorophenyl)-2-(tetrahydro-2H-pyran-3-sulfonamido)isonicotinamide] returned a half-maximal effective concentration (EC50) of under 10 µM.

The molecule `O=C(Nc1ccc(F)c(Cl)c1)c1cccc(NS(=O)(=O)C2CCOC2)c1` (racemic) [Compound 202, (±)-N-(3-chloro-4-fluorophenyl)-3-(tetrahydrofuran-3-sulfonamido)benzamide] had an EC50 of under 10 µM.

In turn, `O=C(Nc1ccc(F)c(Cl)c1)c1cccc(NS(=O)(=O)CC2CCCO2)c1` (racemic) [Compound 203, (±)-N-(3-chloro-4-fluorophenyl)-3-((tetrahydrofuran-2-yl)methylsulfonamido)benzamide] came in with an EC50 of under 10 µM.

Turning to `COCC(C)S(=O)(=O)Nc1cccc(C(=O)Nc2ccc(F)c(Cl)c2)c1` (racemic) [Compound 204, (±)-N-(3-chloro-4-fluorophenyl)-3-(2-methoxy-1-methylethylsulfonamido)benzamide], the EC50 is under 10 µM.

For `CC1OCCC1S(=O)(=O)Nc1cccc(C(=O)Nc2ccc(F)c(Cl)c2)c1` (racemic) [Compound 205, (±)-N-(3-chloro-4-fluorophenyl)-3-(2-methyltetrahydrofuran-3-sulfonamido)benzamide], the 50% effective concentration (EC50) is under 10 µM.

`O=C(Nc1ccc(F)c(Cl)c1)c1cccc(NS(=O)(=O)C2CS(=O)(=O)CC2O)c1` (racemic) [Compound 206, (±)-N-(3-chloro-4-fluorophenyl)-3-(4-hydroxy-1,1-dioxidotetrahydrothiophene-3-sulfonamido)benzamide] came in with an EC50 of under 10 µM.

`O=C(Nc1cc(F)c(F)c(F)c1)c1ccc(F)c(SC2CCCC2)c1` [Compound 3, 3-(Cyclopentylthio)-4-fluoro-N-(3,4,5-trifluorophenyl)benzamide] came in with an EC50 of under 10 µM.

As to `CC(C)(C)Sc1cc(C(=O)Nc2cc(F)c(F)c(F)c2)ccc1F` [Compound 5, 3-(tert-Butylthio)-4-fluoro-N-(3,4,5-trifluorophenyl)benzamide], the concentration for a half-maximal effect (EC50) was under 10 µM.

`O=C(Nc1cc(F)c(F)c(F)c1)c1ccc(F)c(SCCO)c1` [Compound 7, 4-Fluoro-3-((2-hydroxyethyl)thio)-N-(3,4,5-trifluorophenyl)benzamide]: the concentration for a half-maximal effect (EC50) was under 10 µM.

In the case of `Cc1cc(NC(=O)c2ccc(F)c(SC3CCCCC3)c2)ccc1F` [Compound 8, 3-(Cyclohexylthio)-4-fluoro-N-(4-fluoro-3-methylphenyl)benzamide], the EC50 is under 10 µM.

For `Cc1cc(NC(=O)c2ccc(F)c(SC3CCCC3)c2)ccc1F` [Compound 9, 3-(Cyclopentylthio)-4-fluoro-N-(4-fluoro-3-methylphenyl)benzamide], the EC50 was under 10 µM.

Molecule `O=C(Nc1cc(F)c(F)c(F)c1)c1ccc(F)c(SCCCO)c1` [Compound 17, 4-Fluoro-3-((3-hydroxypropyl)thio)-N-(3,4,5-trifluorophenyl)benzamide] showed an EC50 of under 10 µM.

`CC(C)(O)CCSc1cc(C(=O)Nc2cc(F)c(F)c(F)c2)ccc1F` [Compound 19, 4-Fluoro-3-((3-hydroxy-3-methylbutyl)thio)-N-(3,4,5-trifluorophenyl)benzamide] showed an EC50 of under 10 µM.

Regarding `O=C(Nc1cc(F)c(F)c(F)c1)c1ccc(F)c(SCCCCO)c1` [Compound 23, 4-Fluoro-3-((4-hydroxybutyl)thio)-N-(3,4,5-trifluorophenyl)benzamide], the concentration giving a half-maximal response (EC50) is under 10 µM.

Turning to `O=C(Nc1ccc(F)c(Cl)c1)c1ccc(F)c(SCCO)c1` [Compound 26, N-(3-Chloro-4-fluorophenyl)-4-fluoro-3-((2-hydroxyethyl)thio)benzamide], the EC50 is under 10 µM.

On to `O=C(Nc1ccc(F)c(Cl)c1)c1ccc(F)c(SCCCO)c1` [Compound 27, N-(3-Chloro-4-fluorophenyl)-4-fluoro-3-((3-hydroxypropyl)thio)benzamide], for which the EC50 was under 10 µM.

`O=C(Nc1ccc(F)c(Cl)c1)c1ccc(F)c(SCC2CCOCC2)c1` [Compound 47, N-(3-Chloro-4-fluorophenyl)-4-fluoro-3-(((tetrahydro-2H-pyran-4-yl)methyl)thio)benzamide] came in with a 50% effective concentration (EC50) of under 10 µM.

For `O=C(Nc1cc(F)c(F)c(F)c1)c1c[nH]c(=O)c(SC2CCCC2)c1` [Compound 48, 5-(Cyclopentylthio)-6-oxo-N-(3,4,5-trifluorophenyl)-1,6-dihydropyridine-3-carboxamide], the EC50 is under 10 µM.

For the molecule `CC(C)(Sc1cc(C(=O)Nc2ccc(F)c(Cl)c2)ccc1F)C(=O)O` [Compound 51, 2-((5-((3-Chloro-4-fluorophenyl)carbamoyl)-2-fluorophenyl)thio)-2-methylpropanoic acid], the concentration for a half-maximal effect (EC50) was under 10 µM.

The molecule `O=C(Nc1ccc(F)c(Cl)c1)c1ccc(F)c(SC2CCCCCC2)c1` [Compound 52, N-(3-Chloro-4-fluorophenyl)-3-(cycloheptylthio)-4-fluorobenzamide] gave a concentration for a half-maximal effect (EC50) of under 10 µM.

`O=C(Nc1ccc(F)c(Cl)c1)c1ccc(F)c(SCC2COC2)c1` [Compound 60, N-(3-Chloro-4-fluorophenyl)-4-fluoro-3-((oxetan-3-ylmethyl)thio)benzamide] displayed a 50% effective concentration (EC50) of under 10 µM.

Regarding `O=C(Nc1ccc(F)c(Cl)c1)c1ccc(F)c(SC2COC2)c1` [Compound 65, N-(3-Chloro-4-fluorophenyl)-4-fluoro-3-(oxetan-3-ylthio)benzamide], the EC50 is under 10 µM.

Molecule `COc1ccc(C(=O)Nc2ccc(F)c(Cl)c2)cc1SC1CCCCC1` [Compound 69, N-(3-Chloro-4-fluorophenyl)-3-(cyclohexylthio)-4-methoxybenzamide] registered an EC50 of under 10 µM.

In turn, `COc1ccc(C(=O)Nc2ccc(F)c(F)c2)cc1SC1CCCCC1` [Compound 80, 3-(Cyclohexylthio)-N-(3,4-difluorophenyl)-4-methoxybenzamide] displayed a half-maximal effective concentration (EC50) of under 10 µM.

In the case of `O=C(Nc1cc(F)c(F)c(F)c1)c1ccnc(NS(=O)(=O)C2CC2)c1` [Compound 127, 2-(Cyclopropanesulfonamido)-N-(3,4,5-trifluorophenyl)isonicotinamide], the 50% effective concentration (EC50) was under 10 µM.

Molecule `O=C(Nc1ccc(F)c(F)c1)c1ccnc(NS(=O)(=O)C2CC2)c1` [Compound 128, 2-(Cyclopropanesulfonamido)-N-(3,4-difluorophenyl)isonicotinamide] had a half-maximal effective concentration (EC50) of under 10 µM.

Consider `CC1(S(=O)(=O)Nc2cc(C(=O)Nc3ccc(F)c(Cl)c3)ccn2)CC1` [Compound 130, N-(3-Chloro-4-fluorophenyl)-2-(1-methylcyclopropanesulfonamido)isonicotinamide], for which the EC50 was under 10 µM.

`CCS(=O)(=O)Nc1cc(C(=O)Nc2ccc(F)c(Cl)c2)ccn1` [Compound 131]: the EC50 is under 10 µM.

As for `CCCS(=O)(=O)Nc1cc(C(=O)Nc2ccc(F)c(Cl)c2)ccn1` [Compound 133, N-(3-Chloro-4-fluorophenyl)-2-(propylsulfonamido)isonicotinamide], the half-maximal effective concentration (EC50) is under 10 µM.

For the molecule `O=C(Nc1ccc(F)c(Cl)c1)c1ccnc(NS(=O)(=O)C2CCCCC2)c1` [Compound 134, N-(3-Chloro-4-fluorophenyl)-2-(cyclohexanesulfonamido)isonicotinamide], the EC50 is under 10 µM.

These data come from patent publication EP3227262B1, “SULFIDE ALKYL AND PYRIDYL REVERSE SULFONAMIDE COMPOUNDS FOR HBV TREATMENT” (Novira Therapeutics Inc., priority 2014, dated 2016).
